Source: patent publication US20100120700A1, “METHODS AND COMPOSITIONS FOR TREATING CERVICAL CANCER” (priority 2000, published 2010)
Several values for one entry are separate records, joined by “and”; a condition that tells them apart may be missing. Equal entries are not always repeated.

Assays:
Assay in all cases: G assay PDZ-PL binding
PAR3 #182.1 domain 3 = target: T1, PAR3 #182.1 domain 3 (Homo sapiens, UniProt Q8TEW0); details: peptide 10 uM, protein 5
T1 construct: made in house; host or cells: E. coli (DH5alpha or BL-21)
T1 sequence (Q8TEW0 579-681): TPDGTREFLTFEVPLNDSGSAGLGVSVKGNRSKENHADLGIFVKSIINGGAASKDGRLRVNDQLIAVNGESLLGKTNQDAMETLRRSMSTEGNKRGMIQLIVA
Procedure: (§1) (1) A PDZ-domain polypeptide is bound to a surface, e.g. a protein binding surface. In a preferred embodiment, a GST/PDZ fusion protein containing one or more PDZ domains is bound to a polystyrene 96-well plate. […] In one embodiment, the GST/PDZ fusion protein is bound via an anti-GST antibody that is coated onto the 96-well plate. Adequate binding to the plate can be achieved when: • a. 100 uL per well of 5 ug/mL goat anti-GST polyclonal antibody (Pierce) in PBS is added to a polystyrene 96-well plate (e.g., Num Polysorb) at 4° C. for 12 hours. • b. The plate is blocked by addition of 200 uL per well of PBS/BSA for 2 hours at 4° C. • c. The plate is washed 3 times with PBS. • d. 50 uL per well of 5 ug/mL GST/PDZ fusion protein) or, as a negative control, GST polypeptide alone (i.e. not a fusion protein) in PBS/BSA is added to the plate for 2 hours at 4° C. • e. The plate is again washed 3 times with PBS. […]
(§2) (3) The binding of the biotinylated peptide to the GST/PDZ fusion protein surface can be detected using a variety of methods and detectors known to one of skill in the art. In one embodiment, 100 uL per well of 0.5 ug/mL streptavidin-horse radish peroxidase (HRP) conjugate dissolved in BSA/PBS is added and allowed to react for 20 minutes at 4° C. The plate is then washed 5 times with 50 mM Tris pH 8.0 containing 0.2% Tween 20, and developed by addition of 100 uL per well of HRP-substrate solution (TMB, Dako) for 20 minutes at room temperature (RT). The reaction of the HRP and its substrate is terminated by addition of 100 uL per well of 1M sulfuric acid, and the absorbance of each well of the plate is read at 450 nm.
(§3) (4) Specific binding of a PL peptide and a PDZ domain polypeptide is determined by comparing the signal from the well(s) in which the PL peptide and PDZ domain polypeptide are combined, with the background signal(s). The background signal is the signal found in the negative control(s). Typically a specific or selective reaction will be at least twice background signal, more typically more than 5 times background, and most typically 10 or more times the background signal. In addition, a statistically significant reaction will involve multiple measurements of the reaction with the signal and the background differing by at least two standard errors, more typically four standard errors, and most typically six or more standard errors. Correspondingly, a statistical test (e.g. a T-test) comparing repeated measurements of the signal with-repeated measurements of the background will result in a p-value<0.05, more typically a p-value<0.01, and most typically a p-value<0.001 or less. As noted, in an embodiment of the “G” assay, the signal from binding of a given PL peptide to immobilized (surface bound) GST polypeptide alone is one suitable negative control (sometimes referred to as “B 1”). Because all measurement are done in multiples (i.e. at least duplicate) the arithmetic mean (or, equivalently, average.) of several measurements is used in determining the binding, and the standard error of the mean is used in determining the probable error in the measurement of the binding. The standard error of the mean of N measurements equals the square root of the following: the sum of the squares of the difference between each measurement and the mean, divided by the product of (N) and (N−1). Thus, in one embodiment, specific binding of the PDZ protein to the platebound peptide is determined by comparing the mean signal (“mean S”) and standard error of the signal (“SE”) for a particular PL-PDZ combination with the mean B1.
(§4) For convenience, the assay conditions described in this section are referred to as the “G’ assay” and the “G” assay,” with the specific conditions described in the preceding section on G assays being referred to as the “G° assay.” The “G′ assay” is identical to the “G° assay” except at step (2) the peptide concentration is 10 uM instead of 20 uM. […]

TIAM 2 domain 1 = target: T2, TIAM 2 domain 1 (Homo sapiens, UniProt Q8IVF5); details: peptide 10 uM, protein 5
T2 construct: made in house; host or cells: E. coli (DH5alpha, BL21 or JM109)
T2 sequence (Q8IVF5 885-981): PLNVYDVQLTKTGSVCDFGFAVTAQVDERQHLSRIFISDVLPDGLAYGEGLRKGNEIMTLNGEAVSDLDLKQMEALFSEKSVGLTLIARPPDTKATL
Procedure: as §1, §2, §3, §4

KIAA0147 domain 1 = target: T3, KIAA0147 domain 1 (Homo sapiens, UniProt Q14160); details: A450 nm, peptide 10 uM, protein 5
T3 construct: made in house; host or cells: E. coli (DH5alpha, BL21 or JM109)
T3 sequence (Q14160 with tags, fused parts or gaps): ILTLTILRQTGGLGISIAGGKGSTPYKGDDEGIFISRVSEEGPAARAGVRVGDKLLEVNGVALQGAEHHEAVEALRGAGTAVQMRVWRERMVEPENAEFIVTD
Procedure: as §1, §2, §3, §4

RGS12 domain 1 = target: T4, RGS12 domain 1 (Homo sapiens, UniProt O14924); details: peptide 10 uM, protein 5
T4 construct: made in house; host or cells: E. coli (DH5alpha, BL21 or JM109), vector pGEX-3X
T4 sequence (O14924 with tags, fused parts or gaps): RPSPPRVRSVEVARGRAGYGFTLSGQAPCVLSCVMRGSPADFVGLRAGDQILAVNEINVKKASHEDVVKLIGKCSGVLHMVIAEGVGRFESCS
Procedure: as §1, §2, §3, §4

LIM-RIL domain 1 = target: T5, LIM-RIL domain 1 (Homo sapiens, UniProt P50479, A39S/DEL20-20); details: peptide 10 uM, protein 5
T5 construct: made in house; host or cells: E. coli (DH5alpha or BL-21)
T5 sequence (P50479 with tags, fused parts or gaps DEL20-20/A39S): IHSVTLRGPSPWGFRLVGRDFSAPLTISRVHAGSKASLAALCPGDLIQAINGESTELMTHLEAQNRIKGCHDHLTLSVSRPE
Procedure: as §1, §2, §3, §4

EBP50 #168.2 domain 2 = target: T6, EBP50 #168.2 domain 2 (Homo sapiens, UniProt O14745); details: peptide 10 uM, protein 5
T6 construct: made in house; host or cells: E. coli (DH5alpha, BL21 or JM109)
T6 sequence (O14745 with tags, fused parts or gaps): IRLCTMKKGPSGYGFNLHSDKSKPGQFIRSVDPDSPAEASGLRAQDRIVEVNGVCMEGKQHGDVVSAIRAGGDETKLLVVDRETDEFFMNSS
Procedure: as §1, §2, §3, §4

DLG1 domain 1 = target: T7, DLG1 domain 1 (Homo sapiens, UniProt Q12959, R278Q); details: vs GST only well, peptide 10 uM, protein 5
T7 construct: made in house; host or cells: E. coli (DH5alpha, BL21 or JM109)
Procedure: as §1, §2, §3, §4

MINT1 domain 2 = target: T8, MINT1 domain 2 (Homo sapiens, UniProt Q02410); details: peptide 10 uM, protein 5
T8 construct: made in house; host or cells: E. coli (DH5alpha, BL21 or JM109), vector pGEX-3X
T8 sequence (Q02410 with tags, fused parts or gaps): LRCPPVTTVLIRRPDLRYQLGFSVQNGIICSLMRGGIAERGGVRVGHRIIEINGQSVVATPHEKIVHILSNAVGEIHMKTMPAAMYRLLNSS
Procedure: as §1, §2, §3, §4

X-11 beta domain 1 = target: T9, X-11 beta domain 1 (Homo sapiens, UniProt Q99767); details: peptide 10 uM, protein 5
T9 construct: made in house; host or cells: E. coli (DH5alpha, BL21 or JM109)
T9 sequence (Q99767 with tags, fused parts or gaps): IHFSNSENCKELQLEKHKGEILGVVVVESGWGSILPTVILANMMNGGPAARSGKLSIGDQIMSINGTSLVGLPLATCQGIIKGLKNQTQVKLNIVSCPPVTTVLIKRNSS
Procedure: as §1, §2, §3, §4

[1] = target: T10, HEMBA 1003117 #193.3 domain 1 (Homo sapiens, UniProt Q96JH8); details: peptide 10 uM, protein 5
T10 construct: made in house; host or cells: E. coli (DH5alpha, BL21 or JM109)
T10 sequence (Q96JH8 969-1068): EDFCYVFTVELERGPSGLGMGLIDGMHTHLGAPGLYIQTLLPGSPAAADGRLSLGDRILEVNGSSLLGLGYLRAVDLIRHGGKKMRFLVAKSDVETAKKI
Procedure: as §1, §2, §3, §4

KIAA0147 domain 4 = target: T11, KIAA0147 domain 4 (Homo sapiens, UniProt Q14160); details: peptide 10 uM, protein 5
T11 construct: made in house; host or cells: E. coli (DH5alpha, BL21 or JM109)
T11 sequence (Q14160 1099-1203): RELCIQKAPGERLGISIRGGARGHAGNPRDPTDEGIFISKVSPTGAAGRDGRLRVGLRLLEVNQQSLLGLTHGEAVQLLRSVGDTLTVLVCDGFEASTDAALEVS
Procedure: as §1, §2, §3, §4

DLG2 domain 1 = target: T12, DLG2 domain 1 (Homo sapiens, UniProt Q15700); details: peptide 10 uM, protein 5
T12 construct: made in house; host or cells: E. coli (DH5alpha, BL21 or JM109), vector pGEX-3X
Procedure: as §1, §2, §3, §4

Shank 3 domain 1 = target: T13, Shank 3 domain 1 (Homo sapiens, UniProt Q9BYB0); details: peptide 10 uM, protein 5
T13 construct: made in house; host or cells: E. coli (DH5alpha or BL-21)
T13 sequence (Q9BYB0 638-747): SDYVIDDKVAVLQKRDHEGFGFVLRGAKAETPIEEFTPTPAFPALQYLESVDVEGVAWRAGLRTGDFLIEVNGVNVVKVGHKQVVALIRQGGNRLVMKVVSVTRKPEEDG
Procedure: as §1, §2, §3, §4

[2] = target: T14, Syntrophin gamma 2 domain 1 (Homo sapiens, UniProt Q9NY99); details: peptide 10 uM, protein 5
T14 construct: made in house; host or cells: E. coli (DH5alpha, BL21 or JM109), vector pGEX-3X
T14 sequence (Q9NY99 65-163): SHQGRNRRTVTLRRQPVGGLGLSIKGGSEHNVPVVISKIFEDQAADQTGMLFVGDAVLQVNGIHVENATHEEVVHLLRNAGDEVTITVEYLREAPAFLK
Procedure: as §1, §2, §3, §4

## 20 mer peptide corresponding to the C-terminus of HPV16 E6 (PDZ ligand), biotinylated in binding assays; ends SSRTRRETQL (SEQ ID NO: 13) [HPV E6 #16]
PAR3 #182.1 domain 3; A450 nm
  Ave OD: 0.445
PAR3 #182.1 domain 3; vs GST only well
  OD S/N: 2.07
TIAM 2 domain 1; A450 nm
  Ave OD: 0.356
TIAM 2 domain 1; vs GST only well
  OD S/N: 2.05
KIAA0147 domain 1
  Ave OD: 2.1465 and 3.764
RGS12 domain 1; A450 nm
  Ave OD: 0.4295 and 0.661
RGS12 domain 1; vs GST only well
  OD S/N: 3.96 and 4.64
LIM-RIL domain 1; A450 nm
  Ave OD: 0.449
LIM-RIL domain 1; vs GST only well
  OD S/N: 1.60
EBP50 #168.2 domain 2; A450 nm
  Ave OD: 0.3455
EBP50 #168.2 domain 2; vs GST only well
  OD S/N: 1.99
DLG1 domain 1
  OD S/N: 2.98 and 4.18
MINT1 domain 2; A450 nm
  Ave OD: 0.5925
MINT1 domain 2; vs GST only well
  OD S/N: 2.76 and 2.24
X-11 beta domain 1; A450 nm
  Ave OD: 0.352
X-11 beta domain 1; vs GST only well
  OD S/N: 2.02
[1]; A450 nm
  Ave OD: 0.517
[1]; vs GST only well
  OD S/N: 2.20
KIAA0147 domain 4; A450 nm
  Ave OD: 0.464 and 0.3795
KIAA0147 domain 4; vs GST only well
  OD S/N: 2.17 and 2.34
DLG2 domain 1; A450 nm
  Ave OD: 0.793
DLG2 domain 1; vs GST only well
  OD S/N: 3.59
Shank 3 domain 1; A450 nm
  Ave OD: 0.396
Shank 3 domain 1; vs GST only well
  OD S/N: 2.61
[2]; A450 nm
  Ave OD: 0.469 and 0.7725
[2]; vs GST only well
  OD S/N: 2.76 and 3.13
